In data set [1] the target is Phosphatidylinositol 4,5-bisphosphate 3-kinase catalytic subunit gamma isoform (Homo sapiens, UniProt P48736). As to the kind of experiment: Inhibition of PI3Kgamma (unknown origin) using PIP2 as substrate incubated for 2 hrs in presence of ATP by Kinase Glo luminescence assay. In general terms: In Kinase-Glo more light means more ATP remaining.
For data set [2], the target named is T1, Phosphatidylinositol 4,5-bisphosphate 3-kinase catalytic subunit delta isoform (Homo sapiens, UniProt O00329).
T1 sequence (O00329 whole entry): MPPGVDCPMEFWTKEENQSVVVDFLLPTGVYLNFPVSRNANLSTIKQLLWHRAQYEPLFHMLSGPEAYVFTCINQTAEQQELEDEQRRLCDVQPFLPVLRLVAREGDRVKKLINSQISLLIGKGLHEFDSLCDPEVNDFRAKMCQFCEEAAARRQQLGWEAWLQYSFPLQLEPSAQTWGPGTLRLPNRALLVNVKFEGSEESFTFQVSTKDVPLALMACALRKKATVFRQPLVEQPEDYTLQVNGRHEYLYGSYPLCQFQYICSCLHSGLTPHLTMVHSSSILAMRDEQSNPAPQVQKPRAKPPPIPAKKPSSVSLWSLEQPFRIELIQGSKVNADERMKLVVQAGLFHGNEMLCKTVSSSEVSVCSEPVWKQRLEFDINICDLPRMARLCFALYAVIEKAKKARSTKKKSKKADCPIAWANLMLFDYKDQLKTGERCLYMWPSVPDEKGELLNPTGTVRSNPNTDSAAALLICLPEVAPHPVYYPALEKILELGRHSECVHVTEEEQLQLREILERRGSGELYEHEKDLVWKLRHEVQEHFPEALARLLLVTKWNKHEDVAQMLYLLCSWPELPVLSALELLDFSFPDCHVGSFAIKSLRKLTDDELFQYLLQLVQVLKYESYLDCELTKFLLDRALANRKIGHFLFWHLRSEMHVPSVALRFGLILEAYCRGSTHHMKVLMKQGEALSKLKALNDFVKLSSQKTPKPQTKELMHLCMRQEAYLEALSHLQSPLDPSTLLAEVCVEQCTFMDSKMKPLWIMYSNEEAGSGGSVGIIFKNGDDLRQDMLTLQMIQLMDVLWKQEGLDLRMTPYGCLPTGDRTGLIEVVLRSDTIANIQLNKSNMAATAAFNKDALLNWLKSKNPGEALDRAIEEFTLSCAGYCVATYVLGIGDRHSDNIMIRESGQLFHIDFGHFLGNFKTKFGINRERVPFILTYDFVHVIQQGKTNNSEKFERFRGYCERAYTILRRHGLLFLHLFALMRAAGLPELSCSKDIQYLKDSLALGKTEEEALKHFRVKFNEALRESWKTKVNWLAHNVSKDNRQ
The experiment in a line: Inhibition of PI3Kdelta (unknown origin) using L-alpha-phosphatidylinositol as substrate incubated for 60 mins in presence of ATP by Kinase Glo luminescence assay.

Data set [3] relates to HeLa. As to the kind of experiment: Induction of apoptosis in human HeLa cells assessed as viable cells at 1.25 uM incubated for 36 hrs by Annexin V-FITC/PI staining based flow cytometric analysis (reference value: 96.14 %). The format is functional. To be noted: read-out: Activity.
The nature of data set [4]: Cmax in Sprague-Dawley rat at 10 mg/kg, po measured for 24 hrs by LC-MS/MS analysis. It counts as ADME, organism-based. More on the design: time 24 hrs, dose 10 mg/kg, route po. The settings on record: in vivo.
Data set [5] concerns HT-29. As to the kind of experiment: Antiproliferative activity against human HT-29 cells with PIK3CA mutation assessed as inhibition of cell growth incubated for 48 to 72 hrs by MTT assay. It counts as functional, cell-based. On the technique in general: Tetrazolium dyes change colour on reduction, which living cells bring about.
Data set [6] deals with T1, Phosphatidylinositol 4,5-bisphosphate 3-kinase catalytic subunit delta isoform. As to the kind of experiment: Inhibition of PI3Kdelta (unknown origin) using PIP2 as substrate incubated for 2 hrs in presence of ATP by Kinase Glo luminescence assay.
A short description of data set [7]: AUC (0 to infinity) in Sprague-Dawley rat at 10 mg/kg, po measured for 24 hrs by LC-MS/MS analysis. The format is ADME, organism-based. More on the design: time 24 hrs, dose 10 mg/kg, route po. To be noted: in vivo.
Data set [8] has as its system HeLa. As to the kind of experiment: Induction of apoptosis in human HeLa cells assessed as early apoptotic cells at 1.25 uM incubated for 36 hrs by Annexin V-FITC/PI staining based flow cytometric analysis (reference value: 2.02 %). The format is functional. A general note: In flow cytometry, cells or beads pass a laser one at a time.
Data set [9] has as its system HeLa. The experiment in a line: Antitumor activity against human HeLa cells xenografted in BALB/c nude mouse assessed as reduction in Ki67 expression in tumor administered intragastrically daily for 30 days by immunohistochemical analysis. The format is functional. The settings on record: dose 15-60 mg/kg, route ig, time 30.0 day.
Data set [10] concerns HCT-15. As to the kind of experiment: Antiproliferative activity against human HCT-15 cells with PIK3CA mutation assessed as inhibition of cell growth incubated for 48 to 72 hrs by MTT assay. It counts as functional, cell-based.
The subject of data set [11] is HeLa. As to the kind of experiment: Induction of apoptosis in human HeLa cells assessed as viable cells at 0.625 uM incubated for 36 hrs by Annexin V-FITC/PI staining based flow cytometric analysis (reference value: 96.14 %). The settings on record: read-out: Activity. The format is functional.
Data set [12] relates to HeLa. As to the kind of experiment: Induction of apoptosis in human HeLa cells assessed as early apoptotic cells at 2.5 uM incubated for 36 hrs by Annexin V-FITC/PI staining based flow cytometric analysis (reference value: 2.02 %). The format is functional.
For data set [13], the system named is HeLa. The experiment in a line: Inhibition of PI3K/mTOR signalling pathway in human HeLa cells assessed as inhibition of Akt phosphorylation at Thr308 residue incubated for 24 hrs by Western blot analysis. It counts as cell-based. To be noted: dose 0.3125-2.5 µM, DDE = dose-dependent effect.
For data set [14], the system named is HeLa. As to the kind of experiment: Induction of apoptosis in human HeLa cells assessed as early apoptotic cells at 0.3125 uM incubated for 36 hrs by Annexin V-FITC/PI staining based flow cytometric analysis (reference value: 2.02 %). It counts as functional.
Data set [15] in a line: AUC (0 to infinity) in Sprague-Dawley rat at 1 mg/kg, iv measured for 24 hrs by LC-MS/MS analysis. The format is ADME, organism-based. Further details: time 24 hrs, dose 1 mg/kg, route iv. To be noted: in vivo.
The subject of data set [16] is SW-620. The experiment in a line: Inhibition of colony formation in human SW620 cells assessed as reduction in colony forming ability incubated for 15 days by crystal violet staining based analysis. It counts as functional, cell-based. The settings on record: dose 0.15625-1.25 µM, time 15.0 day, DDE = dose-dependent effect.
Data set [17] relates to HeLa. As to the kind of experiment: Induction of apoptosis in human HeLa cells assessed as dead cells at 0.625 uM incubated for 36 hrs by Annexin V-FITC/PI staining based flow cytometric analysis (reference value: 0.44 %). It counts as functional.
The subject of data set [18] is NCI-H3122. The experiment in a line: Antiproliferative activity against human NCI-H3122 cells assessed as inhibition of cell growth incubated for 48 to 72 hrs by MTT assay. The format is functional, cell-based.

Activity calls are given as the source filed them. No cut-off for these calls is given here.

Chain of Phosphatidylinositol 4,5-bisphosphate 3-kinase catalytic subunit gamma isoform (P48736 whole entry, canonical isoform): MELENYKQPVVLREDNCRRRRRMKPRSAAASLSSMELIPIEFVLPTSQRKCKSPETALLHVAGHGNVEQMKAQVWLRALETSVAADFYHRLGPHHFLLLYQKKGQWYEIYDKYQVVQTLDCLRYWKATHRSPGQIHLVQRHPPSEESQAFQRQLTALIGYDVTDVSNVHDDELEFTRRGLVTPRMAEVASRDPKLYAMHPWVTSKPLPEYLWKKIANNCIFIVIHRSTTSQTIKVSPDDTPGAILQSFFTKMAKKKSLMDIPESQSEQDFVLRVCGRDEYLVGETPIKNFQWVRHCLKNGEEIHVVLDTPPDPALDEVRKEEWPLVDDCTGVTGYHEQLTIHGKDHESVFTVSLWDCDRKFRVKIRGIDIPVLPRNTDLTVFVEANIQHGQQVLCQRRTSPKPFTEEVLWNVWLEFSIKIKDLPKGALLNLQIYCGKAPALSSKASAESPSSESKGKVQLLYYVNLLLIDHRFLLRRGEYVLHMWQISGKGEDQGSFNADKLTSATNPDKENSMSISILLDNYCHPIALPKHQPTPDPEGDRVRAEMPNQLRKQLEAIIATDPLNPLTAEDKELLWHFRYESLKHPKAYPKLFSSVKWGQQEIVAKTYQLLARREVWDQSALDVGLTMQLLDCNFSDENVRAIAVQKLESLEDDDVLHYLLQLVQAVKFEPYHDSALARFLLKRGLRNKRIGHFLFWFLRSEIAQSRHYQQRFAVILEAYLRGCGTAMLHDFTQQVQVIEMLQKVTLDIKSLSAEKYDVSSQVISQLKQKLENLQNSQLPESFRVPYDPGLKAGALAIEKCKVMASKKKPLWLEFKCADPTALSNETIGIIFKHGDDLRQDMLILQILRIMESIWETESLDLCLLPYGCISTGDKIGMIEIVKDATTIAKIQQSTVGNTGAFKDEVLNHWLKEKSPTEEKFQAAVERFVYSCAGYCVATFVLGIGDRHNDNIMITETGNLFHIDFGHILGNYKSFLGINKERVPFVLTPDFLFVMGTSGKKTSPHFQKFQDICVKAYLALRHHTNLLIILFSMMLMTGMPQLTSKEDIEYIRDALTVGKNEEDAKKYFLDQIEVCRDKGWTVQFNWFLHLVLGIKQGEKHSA

The IC50 is the concentration at which inhibition is half-maximal. The Cmax is the peak of the concentration-time curve. Broadly, the AUC is concentration integrated over time. Higher therefore signals more exposure. Regarding `Cc1nc2cnc3ccc(-c4cnc5[nH]ccc5c4)cc3c2n1-c1ccc(C(C)(C)C#N)nc1`, the IC50 came to 79.3 nM in data set [1]; 7 nM in data set [2]; 250 nM in [5]; 4.6 nM in data set [6]; 170 nM in [10]; 290 nM in data set [18]. In data set [3], the viability at 1.25 µM was determined as 41.2%. This molecule returned a Cmax in data set [4] of 2995 ng/mL. Also, the area under the curve (AUC) in data set [7] came out at 7620 ng·h/mL; in data set [15], 992 ng·h/mL. The Activity in data set [8] was 26.11%; in data set [12] it was 27.18%; in [14] it was 6.23%; in [17] it was 2.75%. In addition, the outcome in data set [9] was Active. Moreover, in [11], the viability at 0.625 µM turned out to be 70.1%. In addition, the inhibition entry in [13] and in data set [16] was “Dde” each time.

The values are drawn from ChEMBL document CHEMBL5108059, “Discovery of 2-Methyl-2-(4-(2-methyl-8-(1H-pyrrolo[2,3-b]pyridin-6-yl)-1H-naphtho[1,2-d]imidazol-1-yl)phenyl)propanenitrile as a Novel PI3K/mTOR Inhibitor with Enhanced Antitumor Efficacy In Vitro and In Vivo” (J Med Chem, 2022).
